{
  "source": "patent US20190369122A1",
  "about": "“METABOLIC DISORDERS” (priority 2016, published 2019)",
  "key": {"GF mice": {"test_system": "GF mice", "experiment": "Intraperitoneal glucose tolerance test in GF mice", "type": "in vivo, mouse", "settings": "500 μg i.p. twice per day for 3 days", "procedure": "(§1) An intraperitoneal glucose tolerance test (using 1 g glucose per kg body weight) was then performed after a 4 h fast. Blood glucose levels were measured from tail blood using HemoCue201+analyzer (HemoCue, Angelholm, Sweden). Liver and plasma samples were collected after a 4 h fast. Mice were under isoflurane anesthesia and killed by cervical dislocation. Fresh liver was taken and snap-frozen in liquid nitrogen and stored at −80° C. until protein extraction."}, "HEK293 cells": {"test_system": "HEK293 cells", "experiment": "siRNA knock-down in HEK293 cells, ImP-induced signaling", "type": "cell-based, human", "settings": "HEK293 transfected with control or p38δ/p38γ siRNA", "procedure": "(§2) HEK293 cells (ATCC CRL-1573) were grown and maintained in high-glucose (4.5 g/l glucose) DMEM with 10% (v/v) FBS. All HEK293 cell experiments were performed in serum-starved and amino acid-deprived conditions. 24 h after transfection (with plasmids or siRNA as indicated), HEK293 cells cultured in poly-L-lysine-coated 60 mm dishes were rinsed twice with DMEM without FBS and incubated in serum-free DMEM for 18 h. HEK293 cells were then washed once with EBSS and incubated in EBSS for 1 h.\nFLAG mTOR and HA Raptor were kindly provided by Dr Sung Ho Ryu (Pohang University of Science and Technology, Pohang, South Korea). Myc-Rag GTPases constructs were gifts from Dr Do-Hyung Kim (University of Minnesota, Minn., USA). AIIStars negative control siRNA, p38δ siRNA1 (Hs_MAPK13_5 targeting […] (SEQ ID NO: 15)), p38δ siRNA2 (Hs_MAPK13_6 targeting […] (SEQ ID NO: 16)), p38γ siRNA1 (Hs_MAPK12_5 targeting […] (SEQ ID NO: 17)), p38γ siRNA2 (Hs_MAPK12_8 targeting […] (SEQ ID NO: 18)), p38α siRNA (Hs_MAPK14_5 targeting […] (SEQ ID NO: 21)), p38β siRNA (Hs_MAPK11_6 targeting […] (SEQ ID NO: 22)), S6K1 siRNA (Hs_RPS6KB1_5 targeting […] (SEQ ID NO: 23)) and Raptor siRNA (Hs_RPTOR_1 targeting […] (SEQ ID NO: 24)) (Qiagen, Valencia, Calif.) were transfected into HEK293 cells using Lipofectamin 2000 according to the manufacturer's instructions."}, "[1]": {"test_system": "insulin signaling components", "experiment": "Immunoblot of liver lysates from GF mice", "type": "in vivo, mouse", "settings": "3-day treatment", "procedure": "as §1\n(§3) Snap-frozen liver and harvested cells were lysed in buffer containing 50 mM Tris-HCl (pH 7.4), 150 mM NaCl, 1 mM EDTA, 1 mM Na3VO4, 20 mM NaF, 10 mM glycerophosphate, 1 mM PMSF, 10% glycerol, 1% Triton X-100 and protease inhibitor cocktail. For immunoprecipitation, the cell lysates were obtained in 0.3% CHAPS-containing lysis buffer, sonicated and centrifuged at 20,000 g for 15 min at 4° C., and the supernatant was incubated with 20 μl of anti-FLAG beads (Sigma) at 4° C. for 4 h under gentle agitation."}, "primary hepatocytes": {"test_system": "primary hepatocytes", "experiment": "Insulin signaling in primary hepatocytes (immunoblot)", "type": "cell-based, mouse", "procedure": "as §3\nPrimary hepatocytes were isolated from C57BL/6J mice by digesting liver with perfusion of collagenase type IV as described previously. After perfusion, 16×10^5 cells were plated on collagen-coated 60 mm dishes in Dulbecco's modified Eagle's medium (DMEM)/F12 supplemented with fetal bovine serum (FBS), penicillin/streptomycin and 100 nM dexamethasone. After 4 h, the medium was changed to DMEM/F12 containing penicillin/streptomycin."}, "mTORC2": {"test_system": "mTORC2", "experiment": "mTOR modification in mTORC2 (Rictor immunoprecipitation), HEK293", "type": "cell-based, human", "procedure": "as §3"}, "IRS1": {"test_system": "IRS1", "experiment": "Ubiquitination of IRS1", "type": "cell-based", "settings": "6 h treatment", "procedure": "Cells were lysed under denaturing condition with 100 μl buffer A containing 2% SDS, and the cell lysates were transferred to a 1.5-ml microcentrifuge tube. The tube was placed on a hot plate immediately at 95° C. for 10 min. The cell lysates were sonicated and 700 μl of buffer A without SDS was added. The samples were incubated at 4° C. for 30 min, followed by centrifugation (20,000 g, 20 min). The supernatant was incubated with 20 μl of anti-FLAG beads (Sigma) at 4° C. for 4 h under gentle agitation."}, "CONVR mice": {"test_system": "CONVR mice", "experiment": "Intraperitoneal glucose tolerance test in CONVR mice", "type": "in vivo, mouse", "settings": "100 μg i.p. twice per day for 3 days", "procedure": "as §1"}, "[2]": {"test_system": "G6pase, Pepck, Srebp1c, Fasn, Irs1, Irs2", "experiment": "Hepatic gene expression in GF mice (real-time PCR)", "type": "in vivo, mouse", "settings": "500 μg i.p. twice per day for 3 days", "procedure": "as §1\nMouse liver was homogenized in RLT buffer with ([…] using TissueLyser (Qiagen, Hilden, Germany). RNA was isolated using the RNeasy Minikit (Qiagen) and reverse transcribed to synthesize cDNA using High Capacity cDNA Reverse Transcription Kit (Applied Biosystems, Foster City, Calif., USA) according to the manufacturer's protocol. Real-time PCR was performed using 1×SYBR Green Master Mix (Thermo Scientific, Waltham, Mass., USA) using the following primers."}, "[3]": {"test_system": "mTORC1-Rag heterodimer complex-p62", "experiment": "Immunoprecipitation of FLAG mTOR: p62/Rag GTPases/mTORC1 complex formation", "type": "cell-based, human", "settings": "HEK293; 100 μM, absence of amino acids, 1 h", "procedure": "as §3, §2"}},
  "data": [
    {"smiles": "O=C(O)CCc1cnc[nH]1", "note": "[imidazole propionate]", "values": [
      {"measurement": "glucose tolerance", "setting": "GF mice", "result": "significant glucose intolerance"},
      {"measurement": "DEPTOR level", "setting": "HEK293 cells", "result": "not affected"},
      {"measurement": "Akt phosphorylation, either S473 or T308, in liver", "setting": "[1]", "result": "no reduction"},
      {"measurement": "S6K1 phosphorylation in the liver", "setting": "[1]", "result": "increased"},
      {"measurement": "mTORC1 S2481 autophosphorylation in the liver", "setting": "[1]", "result": "without affecting"},
      {"measurement": "hepatic levels of IRS1 and IRS2", "setting": "[1]; 500 μg twice per day", "result": "reduced"},
      {"measurement": "hepatic levels of the insulin receptor (IR)", "setting": "[1]; 500 μg twice per day", "result": "did not affect"},
      {"measurement": "IRS protein levels", "setting": "primary hepatocytes; 100 μM for 8 h", "result": "did not affect"},
      {"measurement": "insulin-induced IRS1 Y612 phosphorylation", "setting": "primary hepatocytes; 100 μM for 8 h, insulin 5 nM", "result": "blunted"},
      {"measurement": "IRS protein levels", "setting": "primary hepatocytes; 100 μM for 20 h", "result": "reduced"},
      {"measurement": "basal Akt phosphorylation at both S473 and T308", "setting": "primary hepatocytes; 8 h", "result": "induced"},
      {"measurement": "insulin-induced Akt S473 phosphorylation", "setting": "primary hepatocytes; 8 h, insulin 5 nM", "result": "reduced"},
      {"measurement": "insulin-induced Akt T308 phosphorylation", "setting": "primary hepatocytes; 8 h, insulin 5 nM", "result": "not"},
      {"measurement": "IRS1 level", "setting": "primary hepatocytes; 14 h", "result": "dramatic reduction"},
      {"measurement": "basal Akt phosphorylation at S473 and T308", "setting": "primary hepatocytes; 14 h", "result": "increase"},
      {"measurement": "insulin-induced Akt S473 phosphorylation", "setting": "primary hepatocytes; 14 h", "result": "lower"},
      {"measurement": "insulin-induced Akt T308 phosphorylation", "setting": "primary hepatocytes; 14 h, vs vehicle", "result": "higher"},
      {"measurement": "S6K1 phosphorylation", "setting": "primary hepatocytes; ImP 100 μM", "result": "increased"},
      {"measurement": "p62 phosphorylation", "setting": "primary hepatocytes; ImP 100 μM for 24 h", "result": "induced"},
      {"measurement": "modulation of mTORC2", "setting": "mTORC2; HEK293, 2 h incubation", "result": "not"},
      {"measurement": "mTOR S2448 or S2481 phosphorylation in mTORC2", "setting": "mTORC2; Rictor immunoprecipitation", "result": "unaffected"},
      {"measurement": "ubiquitination of IRS1", "setting": "IRS1", "result": "promoted"},
      {"measurement": "glucose tolerance", "setting": "CONVR mice", "result": "impaired glucose tolerance"},
      {"measurement": "hepatic Irs1 and Irs2 mRNA levels", "setting": "[2]", "result": "no significant changes"},
      {"measurement": "hepatic expression of Srebp1c and Fasn", "setting": "[2]", "result": "did not affect"},
      {"measurement": "hepatic expression of G6pase and Pepck", "setting": "[2]; vs controls", "result": "significantly increased"},
      {"measurement": "formation of the mTORC1-Rag heterodimer complex-p62", "setting": "[3]", "result": "induced"}
    ]}
  ]
}
